The text below walks through data of patent US9061004B2, “15-PGDH in colon cancer” (Case Western Reserve University, priority 2009, dated 2015).

Each structure is given as a SMILES string.

For one data set, the system named is AOM induced colon tumors. Description: AOM induced colon tumor development in FVB mice on dietary celecoxib. In kind it is in vivo, mouse. The settings on record: for AOM induced colon tumors per mouse / AOM induced large colon tumors (>1 mm) per mouse: mean ± SEM. An excerpt:
To conduct this study FVB mice were selected, chosen because at baseline this mouse strain is sensitive to AOM induced colon tumors (Nambiar, P. R. et al., (2003) Int J Oncol 22, 145-50). In 15-PGDH wild-type FVB mice, AOM induced 2.3±0.4 tumors per mouse colon (FIG. 1A, 1C), which on histology review were all adenomatous lesions. As in human trials, administering dietary celecoxib protected wild-type FVB mice against colon tumor development, reducing adenoma development to 0.7±0.3 tumors per mouse (P=0.003) (FIG. 1A, 1C). Furthermore, while nearly all tumors arising in control mice exceeded 1 mm in size, tumors in celecoxib treated mice rarely reached this size (2.2±0.4 versus 0.3±0.1, P<0.0001) (FIG. 1B).
Dietary celecoxib could thus near completely protect wild-type FVB mice from developing colon tumors. […] Thus, celecoxib treated 15-PGDH null mice developed 5.5-fold more colon adenomas than did their celecoxib treated 15-PGDH wild-type littermates (3.9±0.8 versus 0.7±0.3, P=0.0001) (FIG. 1A, 1C). Moreover, all colonic adenomas arising in celecoxib treated knockout mice were large, each exceeding 1 mm in size; whereas, large tumors were nearly completely absent in celecoxib treated 15-PGDH wild-type mice (3.9±0.8 large tumors per knockout mouse versus 0.3±0.1 per wild-type, P=0.0001) (FIG. 1B, 1C). By several measures, 15-PGDH knockout mice were almost completely resistant to the colon tumor prevention effects of celecoxib. […] Moreover, colon tumor development in celecoxib treated 15-PGDH knockout mice actually exceeded that of drug untreated wild-type mice (3.9±0.8 versus 2.2±0.4 respectively, for tumors >1 mm in size, P=0.04; and, 3.9±0.8 versus 2.3±0.4 respectively tumors of any size, P=0.06) (FIG. 1A, 1B). We conclude that celecoxib mediated colon tumor prevention requires concurrent presence of the prostaglandin inactivating activity of colonic 15-PGDH, and that 15-PGDH loss confers in vivo resistance to this drug effect.
Mouse studies were conducted in the Case Animal Resource Center under a protocol approved by the Institutional Animal Care and Use Committee. 15-Hydroxyprostaglandin dehydrogenase (15-PGDH) knockout mice on a C57BL/6J background were generated as described previously (Myung, S. J. et al., (2006) Proc Natl Acad Sci USA 103, 12098-102; Coggins, K. G. et al, (2002) Nat Med 8, 91-2) and were bred to generation F8 onto an FVB/N (Jackson Laboratory, Bar Harbor, Me.) background, with genotyping done as previously described (Myung, S. J. et al., (2006) Proc Natl Acad Sci U S A 103, 12098-102). 15-PGDH +/− mice generation F8 were intercrossed and siblings of 15-PGDH +/+ and −/− genotypes were selected out for studies with AOM and celecoxib. Eight- to 12-week-old mice were administered AOM by i.p. injection once weekly for 6 weeks at 10mg/kg dose (Sigma Chemical Co., St. Louis, Mo.). Mice were euthanized 24 weeks after the last AOM injection. After euthanizing, the colons were opened longitudinally, rinsed with ice-cold PBS, and examined under a dissecting microscope to identify all tumors. Tumors were resected, fixed in 10% neutral buffered formalin, and paraffin-embedded for histologic examination. All mice received an AIN-76A diet (Harlan Teklad, Madison, Wis.). The diet of celecoxib treated mice was supplemented with 1250 mg/kg of this agent (LKT laboratories, St. Paul, Minn.) (Williams, C. S. et al., (2000) Cancer Res 60, 6045-51). In AOM studies, celecoxib supplementation was initiated starting the day of first AOM injection and continued throughout the lifetime of the mouse. In studies of colonic prostaglandin levels celecoxib was administered to a cohort of 8-12 week old mice continuously for 2 weeks, at which time mice were euthanized.
Prostaglandin and celecoxib levels were log transformed in order to be approximately normally distributed for analysis with a generalized linear regression model with contrasts, generating two-sided P-values. […]

The subject of a further data set is PGE2. Description: Colonic mucosal PGE2 levels by LC/MS/MS after 2 weeks of celecoxib diet. The format is in vivo, mouse. Conditions: 2 weeks celecoxib diet, mean ± SEM. The procedure:
To further investigate the mechanism of celecoxib's dependence on 15-PGDH, we determined PGE2 levels in colonic mucosa of FVB mice under different experimental conditions. Consistent with the role of 15-PGDH in mediating prostaglandin degradation, 15-PGDH gene knockout essentially doubled FVB colonic PGE2 levels (9.1±1.5 ng/mg protein in knockouts versus 5.70±0.8 ng/mg protein in controls, P=0.04) (FIG. 1D). […] In contrast, in 15-PGDH knockout mice the biochemical activity of celecoxib was much attenuated, with the drug lowering PGE2 levels to only 4.7±0.8 ng/mg protein. […] In overview, the efficacy of celecoxib in lowering colonic PGE2 levels in these different models closely paralleled the drug's anti-tumor activity (FIG. 1D versus FIG. 1A, 1B), and mice that lacked 15-PGDH equally acquired resistance to celecoxib's biochemical activity of lowering colonic PGE2 and to celecoxib's phenotypic effect of preventing colon tumors. Celecoxib resistance of 15-PGDH null mice was not due to any change in drug absorption or catabolism, as tissue levels of celecoxib were indistinguishable between drug treated 15-PGDH wild-type and null mice (39.5±9.7 versus 37.7±7.6 ng/mg protein, P=0.7) (FIG. 2A). […] Rather, the effective depletion of colonic PGE2 required the COX-2 inhibitor drug to act in concert with the independent prostaglandin degrading activity of 15-PGDH. […]

Data set [1] can be described thus: Celecoxib tissue levels in colonic mucosa by LC/MS/MS. In kind it is in vivo, mouse. The settings on record: 2 weeks celecoxib supplemented diet, mean ± SEM. As to the method:
Mouse studies were conducted in the Case Animal Resource Center under a protocol approved by the Institutional Animal Care and Use Committee. 15-Hydroxyprostaglandin dehydrogenase (15-PGDH) knockout mice on a C57BL/6J background were generated as described previously (Myung, S. J. et al., (2006) Proc Natl Acad Sci USA 103, 12098-102; Coggins, K. G. et al, (2002) Nat Med 8, 91-2) and were bred to generation F8 onto an FVB/N (Jackson Laboratory, Bar Harbor, Me.) background, with genotyping done as previously described (Myung, S. J. et al., (2006) Proc Natl Acad Sci U S A 103, 12098-102). 15-PGDH +/− mice generation F8 were intercrossed and siblings of 15-PGDH +/+ and −/− genotypes were selected out for studies with AOM and celecoxib. Eight- to 12-week-old mice were administered AOM by i.p. injection once weekly for 6 weeks at 10mg/kg dose (Sigma Chemical Co., St. Louis, Mo.). Mice were euthanized 24 weeks after the last AOM injection. […]
Following 2 weeks of control or celecoxib supplemented diet mice were euthanized. […] The celecoxib level in the samples was determined by LC/MS/MS. […] Celecoxib was detected and quantified by operating the mass spectrometer in electrospray negative ion mode and monitoring the transition m/z 380.2>316.1. Quantification was done by comparing the sample peak areas to a standard curve and concentration of celecoxib was normalized by protein concentration.

A further data set relates to colorectal adenomas. Description: Adenoma Prevention with Celecoxib (APC) trial, recurrent adenomas at 36 months. In kind it is in vivo, human. The settings on record: 16 individuals, 36 months of daily celecoxib. An excerpt:
To test this hypothesis, we examined frozen biopsies of rectal mucosa obtained from 16 individuals at the time of their enrollment in the Adenoma Prevention with Celecoxib (APC) trial (Bertagnolli, M. M. et al., (2006) N Engl J Med 355, 873-84). These individuals were all at high risk for colon adenoma development based on having had multiple colon adenomas and/or adenomas greater than 5 mm in diameter prior to their enrollment. Following clearing of their colonic adenomas by colonoscopy, each individual received 36-months of daily treatment with celecoxib (Bertagnolli, M. M. et al., (2006) N Engl J Med 355, 873-84). […] In total 9 new adenomas were detected in these patients (FIG. 3). 15-PGDH levels among individuals who developed new adenomas were lower than 15-PGDH levels among individuals who remained adenoma free (P=0.04) (FIG. 3). […] The relationship of low 15-PGDH level to celecoxib resistance becomes even stronger if analyzed in terms of the numbers of new adenomas that individuals developed, with 8 of the 9 adenomatous polyps that recurred during celecoxib treatment arising in individuals with colonic 15-PGDH values below the cohort median (P=0.01), and with all 9 new adenomas arising in individuals with colonic 15-PGDH below the cohort mean (P=0.001) (FIG. 3). […]

The test system of the next data set is 15-PGDH mRNA. The settings on record: cited from earlier work.

As for `Cc1ccc(-c2cc(C(F)(F)F)nn2-c2ccc(S(N)(=O)=O)cc2)cc1` [celecoxib], the “AOM induced colon tumors per mouse” value in the data set on AOM induced colon tumors (15-PGDH knockout (null) FVB mice, dietary celecoxib) was found to be 3.9±0.8; in the data set on AOM induced colon tumors (15-PGDH wild-type FVB mice, dietary celecoxib 1250 mg/kg diet), 0.7±0.3 tumors per mouse. Moreover, the “AOM induced large colon tumors (>1 mm) per mouse” value with AOM induced colon tumors (15-PGDH knockout FVB mice, dietary celecoxib) was 3.9±0.8 large tumors per knockout mouse; in the data set on AOM induced colon tumors (15-PGDH wild-type FVB mice, dietary celecoxib), 0.3±0.1. In the data set on AOM induced colon tumors (FVB mice (15-PGDH wild-type)), the “Prevention of AOM induced tumors >1 mm in size” value is on record as 85%. For the same compound, in the data set with AOM induced colon tumors (null versus wild-type, both celecoxib treated), the “Colon adenomas in celecoxib treated 15-PGDH null mice relative to celecoxib treated wild-type littermates” value was found to be 5.5 fold. Moreover, the “Colonic mucosal PGE2 level” value with PGE2 (15-PGDH knockout FVB mice) was found to be 4.7±0.8 ng/mg protein; with PGE2 (15-PGDH wild-type FVB mice), 1.6±0.4 ng/mg protein. For the same compound, the results for the “Tissue level of celecoxib in colonic mucosa” value in data set [1] (15-PGDH null mice) and in data set [1] (15-PGDH wild-type mice) were 37.7±7.6 ng/mg protein and 39.5±9.7 ng/mg protein, respectively. Moreover, in the data set with colorectal adenomas, the “Total new adenomas detected” value came to 9.
Consider `C#Cc1cccc(Nc2ncnc3cc(OCCOC)c(OCCOC)cc23)c1` [erlotinib], for which, in the data set with 15-PGDH mRNA, the “Effect on 15-PGDH mRNA levels” value was “induce 15-PGDH mRNA levels”.
